Earlier results in US8883408B2, “Tissue implants for implantation and methods of preparing the same” (CryoLife, Inc., priority 2010, dated 2014).

Test system: sensitive bacteria
Settings: literature review

In the case of `NCC[C@H](O)C(=O)N[C@@H]1C[C@H](N)[C@@H](O[C@H]2O[C@H](CN)[C@@H](O)[C@H](O)[C@H]2O)[C@H](O)[C@H]1O[C@H]1O[C@H](CO)[C@@H](O)[C@H](N)[C@H]1O` [amikacin], the “minimum inhibitory concentration against sensitive bacteria (MIC) range” value is given as 0.125 to 32 mg/L.
